Assay results: patent publication US11001569B2, “6-membered heteroaromatic substituted cyanoindoline derivatives as NIK inhibitors” (Janssen Pharmaceutica NV, priority 2016, dated 2021)
Where two headings read alike, the source gives them in different places.

Columns and labels:
[1] = system: JJN-3 (NIK translocated) multiple myeloma cells; experiment: Antiproliferative activity on JJN-3 multiple myeloma cells (CellTiter-Glo); format: cell-based, human; details: JJN-3 (NIK translocated) cells, 96 hr treatment, averaged values, read-out: JJN-3 Proliferation inhibition (IC50 (nM))
Protocol: (§1) Determination of Antiproliferative Activity on JJN-3 (NIK Translocated) and KMS12-BM (NIK WT) Multiple Myeloma Cells
(§2) All compounds tested were dissolved in DMSO and further dilutions were made in culture medium. Final DMSO concentration was 0.3% (v/v) in cell proliferation assays. Viability was assessed using CellTiter-Glo cell viability assay kit (Promega). […] Cells were routinely kept as suspension cells at 37° C. in a humidified 5% CO2 atmosphere. Cells were passaged at a seeding density of 0.2×10^6/ml twice a week. Cells were seeded in black tissue culture treated 96-well plates (Perkin Elmer). Densities used for plating ranged from 15000 (JJN3) to 20000 (KMS12BM) cells per well in a total volume of 135 μl medium. Drugs and/or solvents were added (15 μl) to a final volume of 150 μl. Following 96 hr of treatment, plates were removed from the incubator and allowed to equilibrate to room temperature for approx 10 min. 75 μl CellTiter-Glo reagent was added to each well that was then covered (Perkin Elmer Topseal) and shaken on plate shaker for 10 min. Luminescence was measured on a HTS Topcount (Perkin Elmer). […] For initial screening purposes, compounds were tested using a 9 point dilution curve (serial 1:3 dilutions). For each experiment, controls (containing no drug) and a blank incubation (containing cells read at the time of compound addition) were run in parallel. The blank value was subtracted from all control and sample values. For each sample, the mean value for cell growth (in relative light units) was expressed as a percentage of the mean value for cell growth of the control.

[2] = target: recombinant human NF-kappaB-inducing Kinase (NIK/MAP3K14) (Homo sapiens, UniProt Q99558); experiment: Inhibition of auto-phosphorylation of recombinant human NIK/MAP3K14 activity (AlphaScreen); format: biochemical; details: 25 microM ATP, averaged over all measurements on all batches
Sequence of recombinant human NF-kappaB-inducing Kinase (NIK/MAP3K14) (Q99558 whole entry): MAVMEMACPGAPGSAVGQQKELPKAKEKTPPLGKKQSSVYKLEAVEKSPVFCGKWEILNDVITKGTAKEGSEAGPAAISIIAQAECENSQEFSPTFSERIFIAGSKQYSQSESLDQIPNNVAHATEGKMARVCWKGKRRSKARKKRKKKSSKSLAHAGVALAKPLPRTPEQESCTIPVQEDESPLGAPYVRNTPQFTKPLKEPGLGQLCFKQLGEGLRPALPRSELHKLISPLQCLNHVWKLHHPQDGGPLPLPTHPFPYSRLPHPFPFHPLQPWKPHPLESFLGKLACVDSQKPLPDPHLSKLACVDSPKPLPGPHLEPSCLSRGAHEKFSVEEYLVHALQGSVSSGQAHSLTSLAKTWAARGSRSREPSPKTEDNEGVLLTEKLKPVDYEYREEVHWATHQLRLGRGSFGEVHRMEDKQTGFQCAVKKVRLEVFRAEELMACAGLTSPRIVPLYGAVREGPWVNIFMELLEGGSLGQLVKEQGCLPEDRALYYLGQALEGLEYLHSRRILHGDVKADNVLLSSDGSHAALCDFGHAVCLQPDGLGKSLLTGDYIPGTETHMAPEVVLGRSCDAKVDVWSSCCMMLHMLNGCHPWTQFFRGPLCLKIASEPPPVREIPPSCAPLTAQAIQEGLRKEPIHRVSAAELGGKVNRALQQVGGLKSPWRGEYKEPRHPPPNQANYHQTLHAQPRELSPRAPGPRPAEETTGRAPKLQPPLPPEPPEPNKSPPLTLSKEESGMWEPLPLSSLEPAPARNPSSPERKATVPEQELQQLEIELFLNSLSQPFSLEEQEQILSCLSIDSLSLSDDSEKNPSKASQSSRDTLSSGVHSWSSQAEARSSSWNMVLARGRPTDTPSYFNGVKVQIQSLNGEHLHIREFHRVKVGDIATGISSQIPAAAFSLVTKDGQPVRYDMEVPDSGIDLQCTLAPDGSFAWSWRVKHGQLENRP
Protocol: Pharmacological Part Biological assay A Inhibition of auto-phosphorylation of recombinant human NF-kappaB-inducing Kinase (NIK/MAP3K14) Activity (AlphaScreen®)
NIK/MAP3K14 auto-phosphorylation activity was measured using the AlphaScreen® (αscreen) format (Perkin Elmer). All compounds tested were dissolved in dimethyl sulfoxide (DMSO) and further dilutions were made in assay buffer. Final DMSO concentration was 1% (v/v) in assays. Assay buffer was 50 mM Tris pH 7.5 containing 1 mM EGTA (ethylene glycol tetraacetic acid), 1 mM DTT (dithiothreitol), 0.1 mM Na3VO4, 5 mM MgCl2, 0.01% Tween® 20. Assays were carried out in 384 well Alphaplates (Perkin Elmer). […] Incubations were initiated by addition of GST-tagged NIK/MAP3K14 enzyme, carried out for 1 h at 25° C. and terminated by addition of stop buffer containing anti-phospho-IKK Ser176/180 antibody. Protein A Acceptor and Glutathione-Donor beads were added before reading using an EnVision® Multilabel Plate Reader (Perkin Elmer). Signal obtained in the wells containing blank samples was subtracted from all other wells and IC50's were determined by fitting a sigmoidal curve to % inhibition of control versus Log10 compound concentration.

[3] = system: KMS12-BM (NIK WT) multiple myeloma cells; experiment: Antiproliferative activity on KMS12-BM multiple myeloma cells (CellTiter-Glo); format: cell-based, human; details: 96 hr treatment, averaged values, read-out: KMS-12 Proliferation inhibition (IC50 (nM))
Protocol: as §1, §2

Row | SMILES | IC50 ([1]; Homo sapiens, JJN-3, 96 h) [nM] | IC50 [2] [nM] | melting point [°C] | IC50 ([3]; Homo sapiens, KMS-12-BM, 96 h) [nM] | IC50 [1] [nM] | IC50 [3] [nM]
1 | COCCOc1nc(C(F)(F)F)ccc1Nc1nccc(-c2cc(C#N)c3c(c2)[C@@](C)(CO)CN3)n1 [Compound 53] | 3470 | 95.5 | 190 | > 10000 | – | –
2 | COCCOc1ncc(Cl)cc1Nc1nccc(-c2cc(C#N)c3c(c2)[C@@](C)(CO)CN3)n1 [Compound 39] | 324 | 8.5 | 204 | > 10000 | – | –
3 | COc1ncccc1Nc1nccc(-c2cc(C#N)c3c(c2)C(C)(CNC(C)=O)CN3)n1 (centres unmarked) [Compound 115] | 741 | 10 | 203 | 6310 | – | –
4 | CC1(CO)CNc2c(C#N)cc(-c3ccnc(Nc4cccnc4C(F)(F)F)n3)cc21 (centres unmarked) [Compound 31] | 2000 | 9.8 | 202 | > 10000 | – | –
5 | C[C@]1(CO)CNc2c(C#N)cc(-c3ccnc(Nc4cccnc4O[C@H]4CCOC4)n3)cc21 [Compound 28] | 813 | 3.2 | 194 | 3090 | – | –
6 | COc1ncc(Cl)cc1Nc1nccc(-c2cc(C#N)c3c(c2)C(C)(COCCN2CCOCC2)CN3)n1 (centres unmarked) [Compound 121] | 1410 | 117 | 104 | 2510 | – | –
7 | CCOc1ncccc1Nc1nccc(-c2cc(C#N)c3c(c2)C(C)(CO)CN3)n1 (centres unmarked) [Compound 16] | 245 | 3.8 | 248 | > 10000 | – | –
8 | Cc1ccnc(Nc2nccc(-c3cc(C#N)c4c(c3)C(C)(CO)CN4)n2)n1 (centres unmarked) [Compound 126] | 2510 | 148 | 227 | > 10000 | – | –
9 | CC1(C)CNc2c(C#N)cc(-c3ccnc(Nc4cnc(N5CCOCC5)nc4)n3)cc21 [Compound 125] | 166 | 9.8 | 270 | 891 | – | –
10 | COc1nc(C)ncc1Nc1nccc(-c2cc(C#N)c3c(c2)[C@@](C)(CO)CN3)n1 [Compound 129] | 562 | 1.8 | 223 | > 10000 | – | –
11 | Cc1nc(Nc2nccc(-c3cc(C#N)c4c(c3)[C@@](C)(CO)CN4)n2)cc(N2CCN(CCO)CC2)n1 [Compound 133] | ~1950 | 22.9 | – | > 10000 | – | –
12 | Cc1ncc(Nc2nccc(-c3cc(C#N)c4c(c3)[C@@](C)(CO)CN4)n2)c(OCC(=O)N(C)C)n1 [Compound 144] | > 10000 | 24 | – | > 10000 | – | –
13 | COCCOc1ncccc1Nc1ncc(F)c(-c2cc(C#N)c3c(c2)[C@@](C)(CO)CN3)n1 [Compound 106] | 275 | 3.4 | > 250 | 2630 | – | –
14 | CCCCOc1ncccc1Nc1nccc(-c2cc(C#N)c3c(c2)[C@@](C)(CO)CN3)n1 [Compound 40] | 550 | 16.6 | 143 | 3800 | – | –
15 | COc1ncc(Cl)cc1Nc1nccc(-c2cc(C#N)c3c(c2)[C@](C)(COC(=O)[C@H](C)N)CN3)n1 [Compound 109] | 794 | 38 | 171 | > 10000 | – | –
16 | COc1ncc(F)cc1Nc1nccc(-c2cc(C#N)c3c(c2)[C@@](C)(CO)CN3)n1 [Compound 36] | 288 | 3.3 | > 250 | > 10000 | – | –
17 | C[C@]1(CO)CNc2c(C#N)cc(-c3ccnc(Nc4cccnc4O[C@H]4CCCOC4)n3)cc21 [Compound 26] | 794 | 4.1 | 155 | > 10000 | – | –
18 | CN1CCC(Oc2ncc(Cl)cc2Nc2nccc(-c3cc(C#N)c4c(c3)C(C)(CO)CN4)n2)CC1 (centres unmarked) [Compound 15] | 24 | 2.9 | – | > 10000 | – | –
19 | COc1ncccc1Nc1nccc(-c2cc(C#N)c3c(c2)C(C)(COCCN2CCCC2)CN3)n1 (centres unmarked) [Compound 118] | 4570 | 64.6 | 88 | 4070 | – | –

Row | SMILES | IC50 ([1]; Homo sapiens, JJN-3, 96 h) [nM] | IC50 [2] [nM] | melting point [°C] | IC50 ([3]; Homo sapiens, KMS-12-BM, 96 h) [nM] | IC50 [1] [nM] | IC50 [3] [nM]
20 | COCCn1cc(Cl)cc(Nc2nccc(-c3cc(C#N)c4c(c3)[C@@](C)(CO)CN4)n2)c1=O [Compound 14i] | 24 | 1.4 | – | > 10000 | – | –
21 | COc1ncncc1Nc1nccc(-c2cc(C#N)c3c(c2)C(C)(CO)CN3)n1 (centres unmarked) [Compound 130] | 468 | 4.6 | – | > 10000 | – | –
22 | COCCOc1ncccc1Nc1nccc(-c2cc(C#N)c3c(c2)[C@@](C)(CO)CN3)n1 [Compound 33] | 298 | 4.2 | – | > 10000 | – | –
23 | C[C@]1(CO)CNc2c(C#N)cc(-c3ccnc(Nc4cc(Cl)cnc4OC4CCOCC4)n3)cc21 [Compound 22] | 417 | 10.2 | – | > 10000 | – | –
24 | Cc1ncc(Nc2nccc(-c3cc(C#N)c4c(c3)[C@@](C)(CO)CN4)n2)c(OCC2CCCO2)n1 (single isomer, unassigned) [Compound 138] | – | 29.5 | – | – | 1510 | > 10000
25 | Cc1nccnc1Nc1nccc(-c2cc(C#N)c3c(c2)[C@@](C)(CO)CN3)n1 [Compound 163] | 3160 | 34.7 | – | ~5010 | – | –
26 | CC1(CO)CNc2c(C#N)cc(-c3ccnc(Nc4ccc(N5CCNCC5)cn4)n3)cc21 (centres unmarked) [Compound 32] | 89 | 6.5 | – | 437 | – | –
27 | Cc1cnc(OCC2(C)COC2)c(Nc2nccc(-c3cc(C#N)c4c(c3)[C@@](C)(CO)CN4)n2)c1 [Compound 147] | – | 7.9 | > 260 | – | – | –
28 | COc1nc(C(F)(F)F)ccc1Nc1nccc(-c2cc(C#N)c3c(c2)[C@@](C)(CO)CN3)n1 [Compound 54] | 4070 | 39.8 | – | > 10000 | – | –
29 | Cc1nc(Nc2nccc(-c3cc(C#N)c4c(c3)[C@@](C)(CO)CN4)n2)cc(N2CCOCC2)n1 [Compound 134] | > 10000 | 38.9 | – | > 10000 | – | –
30 | Cc1ncc(Nc2nccc(-c3cc(C#N)c4c(c3)[C@@](C)(CO)CN4)n2)c(OCC2(C)COC2)n1 [Compound 142] | 6310 | 15.1 | – | > 10000 | – | –
31 | COc1nnc(Cl)cc1Nc1nccc(-c2cc(C#N)c3c(c2)C(C)(CO)CN3)n1 (centres unmarked) [Compound 124] | ~144 | 3.8 | – | > 10000 | – | –
32 | Cc1cnc(OCC2CCCN2C2CC2)c(Nc2nccc(-c3cc(C#N)c4c(c3)[C@@](C)(CO)CN4)n2)c1 (mixture of isomers) [Compound 175] | – | 19.5 | – | – | – | –
33 | COCCOc1nc(P(C)(C)=O)ncc1Nc1nccc(-c2cc(C#N)c3c(c2)[C@@](C)(CO)CN3)n1 [Compound 139] | ~10000 | 17.8 | – | > 10000 | – | –
34 | COC[C@@]1(C)CNc2c(C#N)cc(-c3ccnc(Nc4cc(Cl)cnc4C)n3)cc21 [Compound 145] | – | 9.5 | – | – | 479 | 4790
35 | COc1nc(C2=CCOCC2)ncc1Nc1nccc(-c2cc(C#N)c3c(c2)[C@@](C)(CO)CN3)n1 [Compound 143] | 347 | 7.8 | – | > 10000 | – | –
36 | Cc1cc(Nc2nccc(-c3cc(C#N)c4c(c3)[C@@](C)(CO)CN4)n2)c(C)nc1OC1CCN(C2CC2)CC1 [Compound 176] | – | 4.8 | – | – | – | –
37 | Cc1nc(C)c(Cl)c(Nc2nccc(-c3cc(C#N)c4c(c3)[C@@](C)(CO)CN4)n2)n1 [Compound 132] | 3310 | 12.9 | – | > 10000 | – | –
